# PMC10466336, “Chemical Probe for Imaging of Polo-like Kinase 4 and Centrioles” (JACS Au, 2023)
# Tests used:
# [1] = target: T1, GFP-Plk4(K41M) in transfected HeLa cells (Homo sapiens, UniProt O00444, K41M); test: Live-cell confocal/STED imaging of overexpressed Plk4; assay type: cell-based; conditions: 500 nM, live-cell STED, HeLa GFP-Plk4(K41M), N = 5
# T1 construct: expressed in transfected cells; host or cells: HeLa
# T1 sequence (O00444 1-970 K41M): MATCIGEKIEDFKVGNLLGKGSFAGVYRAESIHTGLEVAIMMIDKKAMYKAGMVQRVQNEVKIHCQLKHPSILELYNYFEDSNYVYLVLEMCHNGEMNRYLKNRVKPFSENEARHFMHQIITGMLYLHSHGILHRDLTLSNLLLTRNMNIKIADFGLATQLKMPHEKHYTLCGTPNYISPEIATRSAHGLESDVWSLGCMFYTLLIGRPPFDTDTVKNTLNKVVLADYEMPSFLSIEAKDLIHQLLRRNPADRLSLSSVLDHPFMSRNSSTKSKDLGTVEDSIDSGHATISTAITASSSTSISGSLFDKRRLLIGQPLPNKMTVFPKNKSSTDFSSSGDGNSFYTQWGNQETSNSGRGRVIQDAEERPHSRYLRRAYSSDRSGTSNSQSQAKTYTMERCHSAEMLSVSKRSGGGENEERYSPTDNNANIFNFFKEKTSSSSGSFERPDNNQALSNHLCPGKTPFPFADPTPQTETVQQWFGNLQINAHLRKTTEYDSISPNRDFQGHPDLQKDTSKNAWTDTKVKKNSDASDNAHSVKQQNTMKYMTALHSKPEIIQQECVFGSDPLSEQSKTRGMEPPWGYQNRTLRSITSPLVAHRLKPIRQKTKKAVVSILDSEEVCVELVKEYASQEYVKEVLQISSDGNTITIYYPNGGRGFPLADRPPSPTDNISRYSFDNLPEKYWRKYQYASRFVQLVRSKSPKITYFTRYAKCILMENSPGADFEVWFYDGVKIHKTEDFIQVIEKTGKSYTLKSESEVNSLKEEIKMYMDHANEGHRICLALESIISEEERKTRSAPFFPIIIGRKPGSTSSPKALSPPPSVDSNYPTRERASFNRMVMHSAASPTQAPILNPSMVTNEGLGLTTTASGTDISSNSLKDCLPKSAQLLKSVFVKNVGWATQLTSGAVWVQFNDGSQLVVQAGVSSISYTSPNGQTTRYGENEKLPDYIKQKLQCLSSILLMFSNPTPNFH
# [2] = target: T2, 6xHis-tagged Plk4 kinase domain (KD) (Homo sapiens, UniProt O00444); test: Estimation of fluorescence increase (fluorogenicity) with Plk4 kinase domain versus BSA
# T2 construct: Plasmids encoding fragments of Plk4 kinase domain (2-275) with 6xHis-tag were cloned in pET system vectors; made in house; host or cells: E. coli BL21 gold (DE3)
# T2 sequence (O00444 2-275): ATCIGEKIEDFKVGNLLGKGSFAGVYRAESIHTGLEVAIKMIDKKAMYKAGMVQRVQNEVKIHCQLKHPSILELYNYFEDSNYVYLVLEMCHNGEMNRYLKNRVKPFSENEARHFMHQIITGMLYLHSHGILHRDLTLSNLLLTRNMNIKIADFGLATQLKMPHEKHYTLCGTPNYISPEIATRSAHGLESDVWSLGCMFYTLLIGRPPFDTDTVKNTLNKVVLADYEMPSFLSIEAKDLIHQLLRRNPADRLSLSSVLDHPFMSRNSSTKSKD
# Description: Moreover, we substituted the basic acetyl-piperazine nitrogen in compounds (1 and 2a) with an acetyl-piperidine, to avoid probe protonation and accumulation in endolysosomal compartments (Figure S1A, B).[23] This yielded a second generation of centrinone-based probes (compounds 2b–d). These probes were characterized first in vitro by measuring their fluorogenicity in the presence of the 6xHis-tagged Plk4 kinase domain (KD) (Table 1). […] Next, we measured the binding affinities of the probes to the Plk4 kinase domain via a competition binding assay based on fluorescence polarization. […]
# 1.3.5 Estimation of fluorescence increase
# The probes were analysed as described in Lukinavičius et al. 2014 1. Briefly, SiR650 or SiR595- […]
# purified Plk4 kinase domain (10 µM in 20 mM Tris, 200 mM NaCl at pH 7.5) or to a bovine serum albumin (BSA) (Sigma) solution (0.2 mg/mL in 20 mM Tris, 200 mM NaCl at pH 7.5). Final concentration of the probe was 3 µM. The samples were incubated for 1 h at 37 °C, and fluorescence was measured in a 96-well plate (Greiner Bio-One) on a plate reader (TECAN Spark® 20M).
# Fluorescence emission was recorded from 570 nm to 750 nm for SiR595 probes, and 630 nm to 750 nm for SiR650 while exciting at 550 nm ± 10 nm for SiR595 probes and at 610 ± 10 nm for SiR650 probes.
# A fluorescence excitation scan was recorded by measuring the emission at 660 ± 10 nm for SiR595 and 720 ± 10 nm for SiR650 probes, while exciting from 500 nm to 640 nm for SiR595 probes and from […]
compound,measurement,setting,value
COc1c(Nc2cc(C)[nH]n2)nc(Sc2ccc(S(=O)(=O)Cc3cccc([N+](=O)[O-])c3F)cc2F)nc1N1CCC(CC(=O)NCCNC(=O)c2ccc(C(=O)O)c(C3=C4C=CC(=N)C=C4[Si](C)(C)c4cc(N)ccc43)c2)CC1 [2d],diameter of the circular SiR595 signal,[1],373 ± 36 nm
same,increase in fluorescence upon binding,[2]; in presence of Plk4 KD versus BSA,36 fold
same,FPIk4/FBSA,"[2]; mean of F(+Plk4KD)/F(+BSA) and standard deviation, N = 3, probe 3 µM, 1 h 37 °C",36 ± 1
